One assay deals with HIV patients. The note with it: cited from earlier work; for efficacy in clinical trails investigating HIV-mediated neuropathic pain: Shlay et al. (1998), Kieburtz et al. (1998).
The subject of assay [1] is rat sciatic nerve. As to the kind of experiment: CGRP-release from isolated rat sciatic nerve upon stimulation (Method C). As to conditions: Capsaicin 100 nM, t0-t5 stimulation period.
The subject of another assay is rat DRG neurons. As to the kind of experiment: Inhibition of gp120-mediated CGRP-release from rat DRG neurons (Method B). As to conditions: for pIC50: Rattus norvegicus, DRG neuron; for inhibition of gp120-mediated CGRP release from DRG neurons: result in words.
Assay [2] deals with rat sciatic nerve. As to the kind of experiment: gp120-mediated CGRP release from rat sciatic nerve in the presence or absence of VR1 inhibitors (Method C). As to conditions: for block of CGRP release from gp120-stimulated sciatic nerve: result in words; for CGRP release: gp120 250 pg/ml in the presence of CAZ (1 µM) or Cpd. 1 (20 nM).
Description: After 5 min, 10 min and 20 min supernatant was substituted with fresh solution or RAB buffer pH 7.4 and the samples placed on ice until analysis. All samples were analyzed by EIA for CGRP release and normalized by the dry weight of the particular sciatic nerve.
Male Wistar rats (180-220 g) are anesthetized using Isofluran, Dinitricoxide and Oxygen (5:68:27 (v/v/v)) in a vaporisator. The hind legs are shaved and opened along the femur. Using tweezers and scissors the Musculus gluteus superficialis and Musculus bicepsfemoris are separated gaining access to the Nervus ischiadicus. The Nervus ischiadicus is cut proximally 1 cm before entry into the spine and laterally at the branching of Nervus fibularis and Nervus tibialis. […] The fixed nerve is transferred to a 1.5 ml eppendorf tube containing 300 µl RAB, pH 7.4 at RT.
To reset all samples, sciatic nerve preparations are transferred 5 min prior to stimulation to fresh 300 µl of RAB pH 7.4 (prestimulation ― point zero). Stimulation is performed for 5 or 10 min with Capsaicin solution (100 nM Capsaicin in RAB pH 7.4), RAB pH 4.5 or preheated RAB pH 7.4 (50°C) in the presence or absence of inhibitors. To evaluate post-stimulation CGRP-release sciatic nerve preparations are transferred in 5-min-intervals to fresh tubes containing RAB pH 7.4. Supernatants of each sample are transferred to EIA plates (CGRP Release Kit, SpiBio, Paris, France) and analyzed in triplicate (3 x 100µl) according to the manufacterer's protocol. Upon completion of the experiment the sciatic nerve preparations are carefully removed from the spatula, dried on 3MM paper and weighed. CGRP concentrations obtained from the CGRP-release EIA are finally normalized to the dry weight of the sciatic nerve preparations.

Structures are written as SMILES. pIC50: −log10 of the molar value.

In the case of `CN(C)CCC=C1c2ccccc2CCc2ccccc21` [Amitriptyline], the “efficacy in clinical trails investigating HIV-mediated neuropathic pain” value in the assay with HIV patients is “completely ineffective”.
`COc1cc(CNC(=O)CCCC/C=C/C(C)C)ccc1O` [CAPS, Capsaicin]: the CGRP-release is given as 0.05923 ng/mg ng CGRP/mg nerve dry weight with rat sciatic nerve [1] (time 0 min); 5.9+/-1.3 ng/mg ng CGRP/mg nerve dry weight in the assay on rat sciatic nerve [1] (time 5 min); 5.3+/-0.2 ng/mg ng CGRP/mg nerve dry weight in the assay on rat sciatic nerve [1] (time 10 min); 4.0+/-0.1 ng/mg ng CGRP/mg nerve dry weight with rat sciatic nerve [1] (time 20 min); 0 ng CGRP/mg nerve dry weight in the assay on rat sciatic nerve [1] (time -5 min). The “pain in HIV patients with chronic DSP” value in the assay with HIV patients (randomized, double-masked clinical trail, Paice et al. (2000)) is listed as “strongly increased pain”.
As to `Oc1cc2c(cc1O)CN(C(=S)NCCc1ccc(Cl)cc1)CCC2` [CAZ, Capsazepin], in the assay with rat DRG neurons, the pIC50 was 6.96 and the “inhibition of gp120-mediated CGRP release from DRG neurons” value (“inhibition” below) is reported as “completely inhibited”. Also, the “block of CGRP release from gp120-stimulated sciatic nerve” value in the assay on rat sciatic nerve [2] is “capable to block CGRP release”.
As to `N#CC(=C(/N)Sc1ccccc1N)/C(C#N)=C(\N)Sc1ccccc1N` [Compound U0126], in the assay with rat DRG neurons, the pIC50 was 8.72 and the “inhibition” value was “completely inhibited”.
For `O=C(NCc1ccc(OC(F)(F)F)cc1)Nc1cccc2c1CC(O)CC2` (centres unmarked) [Cpd. Example 1, N-(7-hydroxy-5,6,7,8-tetrahydro-naphthalen-1-yl)-N'-(4-trifluoromethoxy-benzyl)-urea], the pIC50 in the assay on rat DRG neurons is 9.36. Besides, the “inhibition” value in the assay with rat DRG neurons was “completely inhibited”. For the same molecule, the CGRP release in the assay with rat sciatic nerve [2] (time 0 min), in the assay on rat sciatic nerve [2] (time 5 min), with rat sciatic nerve [2] (time 10 min), in the assay on rat sciatic nerve [2] (time 20 min) and in the assay with rat sciatic nerve [2] (time -5 min) was 0 each time. For the same molecule, the “block of CGRP release from gp120-stimulated sciatic nerve” value in the assay with rat sciatic nerve [2] is “capable to block CGRP release”.
`CC(C)Cc1ccc(C(C)C(=O)O)cc1` (centres unmarked) [Ibuprofen]: the “inhibition” value with rat DRG neurons was “can not inhibit”.
On to `Cc1cccc(C)c1OCC(C)N` (centres unmarked) [Mexiletine], for which the “efficacy in clinical trails investigating HIV-mediated neuropathic pain” value in the assay with HIV patients is on record as “completely ineffective”.
As to `CC(Cc1ccc(O)c(O)c1)C(C)Cc1ccc(O)c(O)c1` (centres unmarked) [NGDA, Nordihydroguaiaretic Acid], in the assay on rat DRG neurons, the pIC50 is 4.37 and the “inhibition” value is “completely inhibited”.
In the same order, the values of `COc1cccc(-c2cc(=O)c3ccccc3o2)c1N` [PD98059] are 8.03 and “completely inhibited”.
For `CCN(CC)CCCC(C)Nc1c2ccc(Cl)cc2nc2ccc(OC)cc12` (centres unmarked) [QN, Quinacrine] the same measures were 5.82 and “completely inhibited”.
For the molecule `C[S+]([O-])c1ccc(-c2nc(-c3ccncc3)c(-c3ccc(F)cc3)[nH]2)cc1` (centres unmarked) [SB203580], the “inhibition” value with rat DRG neurons is given as “completely inhibited”.

One may read the pIC50 as the negative decadic logarithm of the IC50, by convention in mol/L. Read a low pIC50 as a high IC50.

The values above are taken from patent publication EP1493438A1, “Vanilloid receptor (VR) inhibitors for treatment of Human Immunodeficiency Virus (HIV)-mediated pain states” (Bayer HealthCare AG, priority 2003, dated 2005).
